Assay [1] relates to red cells of subjects suffering from drepanocytosis. Put plainly: Inhibition of sickling of human red blood corpuscules of subjects suffering from drepanocytosis. It counts as cell-based. As to conditions: pH 7.40, one hour at 37° C. As for the experimental part: Inhibition of the sickling of human red blood corpuscules was assessed by washing and incubating, in a saline buffer (pH: 7.40; 0.15M) for one hour at 37° C., the red cells of subjects suffering from drepanocytosis. This operation was carried out in a water-bath under stirring and in the presence of a compound of the invention used at different concentrations. The molar ratios between the compound of the invention and the haemoglobin were initially tested at intervals ranging from 0.5 to 20, the mM concentration in haemoglobin being 0.5 in each case and the ratio being modified according to the results obtained.
At the end of incubation, the excess of the product being tested was removed by washing and the cellular suspension adjusted so as to form a haematocrit of 5% was transferred to an Erlenmeyer flask and incubated at 37° C. under a current comprising a humidified mixture of nitrogen and oxygen the oxygen concentration being regulated by a gas-mixing pump. The effluent gas was then transferred to another tube containing formaldehyde and, at the end of incubation, the cellular suspension was transferred to the formaldehyde by merely turning the flask upside down.
The proportion of deformed cells and those having the characteristics of drepanocytes (having two filiform extensions) was assessed with the aid of a microscope having a NORMARSKY interferential optical system. Inhibition of sickling was calculated according to the following formula: [formula]
The following results were obtained with representative compounds of the present invention in comparison with cystamine.

Assay [2] deals with sickling. As to conditions: literature: Inserm Symposium 1979; in words; cited from earlier work.

As to `Cc1ccc(S(=O)(=O)Sc2nnc(N)s2)cc1` [5-amino-1,3,4-thiadiazol-2-yl p-toluenethiosulfonate], the “% inhibition of sickling of the red blood corpuscles” value (“% inhibition” for short) in assay [1] (1 mmolar) was 33%.
As to `Cc1ccc(S(=O)(=O)Sc2ncc[nH]2)cc1` [1H-imidazol-2-yl p-toluenethiosulfonate], the “% inhibition” value stood at 50% in assay [1] (0.5 mmolar) and 100% in assay [1] (1 mmolar).
On to `NCCSSCCN` [Cystamine, cystamine, reference compound], for which the inhibiting sickling entry in assay [2] is “particularly active”. The “% inhibition” value in assay [1] (5 mmolar) came to 33%.

The values are drawn from patent publication US4696937A, “Thiosulfonate derivatives for inhibiting malformation or destruction of red blood corpuscules” (Sanofi, priority 1984, dated 1987).
